Data on one compound can be found in PMC6930524, “A Prospective Repurposing of Dantrolene as a Multitarget Agent for Alzheimer’s Disease” (Molecules, 2019).

Holding throughout (format): biochemical
The target in assay [1] is T1, BChE from human serum (hBChE) (Homo sapiens, UniProt P06276).
T1 construct: BChE from human serum (50 U/mg); purchased Sigma-Aldrich Europe (Milan, Italy); host or cells: human serum
The assay can be described thus: hBChE inhibition, Ellman's spectrophotometric assay. The following applies: mean ± SEM of three independent experiments. On the procedure: An already published method was used to apply the Ellman’s spectrophotometric assay to the 96-well plate technique. […] Experiments were performed in duplicate in transparent, flat-bottomed polystyrene 96-well microtiter plates, and readings made with Tecan Infinite M1000 Pro instrument.
A general note: Ellman's reagent forms a yellow product with free thiols.

In assay [2] the target is T2, Tau hexapeptide (306)VQIVYK(311) (PHF6) (Homo sapiens, UniProt P10636).
T2 construct: Tau hexapeptide (306)VQIVYK(311) (PHF6); purchased JPT Peptide Technologies GmbH, Berlin, Germany; host or cells: synthetic peptide
The assay can be described thus: Inhibition of PHF6 self-aggregation (ThT fluorescence, TFE cosolvent). The following applies: inhibitor 25 μM, PHF6 50 μM. The source says: As an additional proof of the potential of DAN in interfering with AD-related processes, we investigated the effects on the in vitro self-aggregation of beta amyloid peptide 1–40 (Aβ40) and Tau hexapeptide (306)VQIVYK(311) (PHF6). Aβ40 is used as an in vitro probe of the fibrillization process leading to amyloid fibrils and ultimately to senile plaques in AD [32], while PHF6 represents the highly proaggregating sequence of the repeated domain R3 of Tau protein, responsible of the formation of neurofibrillary tangles and other tauopathies in NDs. […]
Highly aggregating hexapeptide Ac-VQIVYK-NH2 (trifluoroacetate salt; JPT Peptide Technologies GmbH, Berlin, Germany) was used as mimic of tau fibrillization in vitro. […] Incubation samples were prepared in black low-binding, flat-bottomed polystyrene 96-well microtiter plates, containing PHF6 (final conc. 50 μM), inhibitor (25 μM) and ThT (10 μM) in a final volume of 180 μL, and immediately read with Tecan Infinite M1000 Pro instrument. Samples were set in triplicate and their fluorescence values subtracted of the blank. […] Fluorescence was measured at 440/485 excitation/emission wavelength within 2 h at 25 °C. Endpoint fluorescence values (arbitrary fluorescence units, AFU) were used for the calculation of residual aggregation as in Equation (1): % residual aggregation = 100 × AFUsample/AFUcontrol(1)

Assay [3] addresses T3, native CAC (mitochondrial rat liver extract) (Rattus norvegicus, UniProt P97521).
T3 construct: Mitochondrial rat liver extract (0.3 mg proteins in 3% Triton X-100) containing native CAC was reconstituted into liposomes; from tissue; host or cells: rat liver mitochondrial Triton X-100 extract
T3 sequence (P97521 1-301): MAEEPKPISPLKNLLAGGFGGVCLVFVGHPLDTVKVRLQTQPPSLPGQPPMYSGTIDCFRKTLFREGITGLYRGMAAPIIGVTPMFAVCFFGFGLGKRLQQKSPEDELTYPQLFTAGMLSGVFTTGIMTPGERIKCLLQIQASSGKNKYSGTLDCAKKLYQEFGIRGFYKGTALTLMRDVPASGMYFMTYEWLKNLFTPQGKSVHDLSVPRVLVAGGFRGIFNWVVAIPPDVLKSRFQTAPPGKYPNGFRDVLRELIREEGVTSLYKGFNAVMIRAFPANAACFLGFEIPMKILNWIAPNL
Kind of assay: Transport activity of native CAC from mitochondrial extract reconstituted into liposomes. The settings on record: after 30 min of incubation; concentration range 1–200 μM; read-out: EC50 of activation of native CAC. As to the method:
To detect the effect of DAN on native CAC, mitochondrial extract was reconstituted into liposomes and transport activity was measured adding various concentrations of compound. In Figure 7A, the dose–response curve is shown. […] Thus, the effect of different concentrations of DAN was tested also on the purified recombinant wild-type (WT) CAC carrier reconstituted into liposomes, measuring the antiport rate of carnitine.
Mitochondrial rat liver extract (0.3 mg proteins in 3% Triton X-100) containing native CAC was reconstituted into liposomes by removing the detergent from the mixed micelles through a hydrophobic ion-exchange column containing the resin Amberlite XAD-4, as described previously. […]
Before starting the transport activity, proteoliposomes were passed through a Sephadex G-75 column (0.7 cm diameter; 15 cm height; Pharmacia, Milan, Italy) to remove the external substrate. […] Finally, the external substrate was removed by chromatography on Sephadex G-75 columns (0.7 cm diameter; 10 cm height) and intraliposomal radioactivity was measured by a liquid scintillation counter (Perkin Elmer, Milan, Italy).
EC50 values were calculated using AATBioquest EC50 calculator [60]. […]

T1 sequence (P06276 29-602): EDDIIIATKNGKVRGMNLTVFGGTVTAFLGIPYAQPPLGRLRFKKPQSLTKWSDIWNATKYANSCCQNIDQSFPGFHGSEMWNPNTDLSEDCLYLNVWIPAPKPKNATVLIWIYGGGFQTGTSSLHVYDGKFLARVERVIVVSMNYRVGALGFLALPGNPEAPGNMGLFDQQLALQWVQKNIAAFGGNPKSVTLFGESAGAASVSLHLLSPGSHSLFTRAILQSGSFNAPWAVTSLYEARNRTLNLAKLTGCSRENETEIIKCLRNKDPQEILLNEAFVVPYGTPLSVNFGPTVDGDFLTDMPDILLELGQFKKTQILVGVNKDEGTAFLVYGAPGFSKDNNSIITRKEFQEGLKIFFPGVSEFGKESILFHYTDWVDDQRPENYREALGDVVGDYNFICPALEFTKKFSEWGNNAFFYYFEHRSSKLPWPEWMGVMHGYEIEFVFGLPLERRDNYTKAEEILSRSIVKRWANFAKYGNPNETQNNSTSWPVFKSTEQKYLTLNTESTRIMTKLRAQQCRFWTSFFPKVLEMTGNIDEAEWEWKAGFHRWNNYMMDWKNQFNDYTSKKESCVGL

In general, inhibition refers to the share of the control response that was lost under treatment. As a reminder, the EC50 is the concentration needed to bring the measured effect to its halfway point. `O=C1CN(/N=C/c2ccc(-c3ccc([N+](=O)[O-])cc3)o2)C(O)=N1` [Dantrolene]: in assay [1], the “hBChE IC50” value is “No inhibition”. In assay [2], this compound returned an inhibition at 25 µM of 32%. Further, in assay [3], the EC50 came out at 18 ± 5 µM.
